Reference: patent publication US20220211858A1, “TUBULAR SUPRAMOLECULAR POLYMERS” (priority 2019, published 2022)
pIC50: −log10 of the molar value. Read-outs that look alike come from different tables or passages of the source.

Assays:
[1] = TEM / cryo-TEM imaging of self-assembled nanostructures (dimensions); assay type: physicochemical; settings: self-assembled nanotubes in water, 200 μM, n>40
Experimental: About 200 μM stock solutions of corresponding TTs in water were prepared by dissolution of the lyophilized powders. After aging overnight, TEM samples were prepared by depositing 7 μL of the appropriate solution onto a carbon-coated copper grid (Electron Microscopy Services, Hatfield, Pa., USA), wicking away the excess solution with a small piece of filter paper. Next, 7 μL of a 2 wt % uranyl acetate aqueous solution was deposited on the surface for 30 seconds, wicking away the excess solution with filter paper. The grids were then air-dried overnight at room temperature prior to imaging. Bright-field TEM imaging was performed using an FEI Tecnai 12 TWIN Transmission Electron Microscope operated at an acceleration voltage of 100 kV. All TEM images were acquired by a SIS Megaview III wide-angle CCD camera or 16 bit 2K×2K FEI Eagle bottom mount camera.
Cryo-TEM imaging was performed using higher sample concentrations of 800 μM (compared with 200 μM for conventional TEM imaging). Extended imaging times can result in damage to the vitreous ice film caused by the electron beam and so higher concentrations can allow a more rapid visualization that reduces this likelihood. About 6 μL of the appropriate solution was dropped onto a lacey carbon-film-supported TEM copper grid (Electron Microscopy Services, Hatfield, Pa., USA). All the TEM grids used for cryo-TEM imaging were pretreated with plasma air to render the lacey carbon film hydrophilic. A thin film of the sample solution was produced using a Vitrobot with a controlled humidity chamber (FEI). After loading of the sample solution, the lacey carbon grid was blotted using preset parameters and plunged instantly into a liquid ethane reservoir precooled by liquid nitrogen. The vitrified samples were then transferred to a cryo-holder and cryo-transfer stage that was cooled by liquid nitrogen. To prevent sublimation of vitreous water, the cryo-holder temperature was maintained below −170° C. during the imaging process. All images were recorded by a Tecnai 12 microscope with a cryo-holder, and the images were acquired by a 16 bit 2K×2K FEI Eagle bottom mount camera.
Self-Assembly of SAPDs from TT1. To study the self-assembly behavior of the SAPDs, we directly dissolved the lyophilized powders in deionized water at a concentration of 2 mM and neutral pH.

[2] = Zeta potential measurement; assay type: physicochemical; settings: 1×-DPBS buffer
Experimental: TT solutions of 200 μM in 1×-DPBS buffer (pH=7.4) were prepared by directly mixing identical volumes of a 400 μM aqueous TT solution and 2×-DPBS buffer (pH=7.4). In some embodiments, solutions at a concentration of 2 mM in PBS buffer (pH=7.4) were prepared and aged overnight prior to zeta potential measurement. TT solutions of 200 μM in 1×-DPBS buffer (pH=5.0) were prepared by mixing identical volumes of a 400 μM aqueous TT solution and 2×-DPBS buffer (pH=5.0), which was pretreated with 6 M HCl. The zeta potential measurements were performed on a Zetasizer Nano ZS90 (Malvern Instruments Ltd., UK). The prepared solutions were loaded in capillary cells and equilibrated for 2 min prior to measurement. The average values and their standard deviations are calculated from three replicate measurements. The zeta potential of the assembled structures was obtained by measuring the electrophoretic movement of the nanostructures under the applied electric field, where the movement velocity is determined by phase analysis light scattering. Variations of the zeta potential value over time were determined by measuring the solutions at different aging time points (1, 2, 4 and 7 days) and are plotted in FIG. 10.

[3] = Tolerability of free CPT in mice; assay type: in vivo
Experimental: Due to its poor water solubility, free CPT is often given in a formulation containing a mixture of DMSO/ethanol/PEG-400/water at a volumetric ratio of 1:1:2:1 (24). […] We eventually identified an intraperitoneal injection of 4.5 mg/kg CPT to be a tolerable dosage for animal studies. In contrast, the MTD of TT 1 SPs in healthy athymic nude mice, identified in a dose escalation study through systemic administration, is within the range of 24-30 mg/kg (CPT equivalent) (FIG. 3D and FIG. 13). […] Four out of five mice survived for up to 37 d (9 mg/kg) and 43 d (15 mg/kg).

[4] = Biodistribution study in U87 MG tumor-bearing mice; assay type: in vivo, nude mice; settings: nude, mouse, in vivo, 4.5 mg/kg, 4.5 mg/kg i.v., 1 hour after injection
Experimental: Mice bearing subcutaneous tumors were established by injecting 100 μL of a U87 MG suspension in serum-free medium (2×10^6 cells) into the right flank of the mice. When the tumor reached a size of −200 mm^3, the mice were randomly grouped and received one of the following 3 treatments via intravenous injection (n=18 for each group): free CPT (4.5 mg/kg), TT 1 (4.5 mg/kg), and TT 1 (15 mg/kg). Three mice from each group were euthanized at pre-determined time points (1, 2, 4, 8, 12, and 24 h). Plasma, major organs, and tumors were collected and stored at −80° C. for further analysis. To determine the amount of free CPT and TT 1 in the samples, 100 mg tumors were mixed with 900 μL acetonitrile (containing 0.1% TFA) and then homogenized using Precellys Evolution Super Homogenizer (Bertin Technologies, France) for 3×40 s (5,600 shakes/min). The resulting suspensions were centrifuged and the supernatants were collected. For plasma, 50 μL of sample was mixed with 450 μL acetonitrile (containing 0.1% TFA) and sonicated for 1 min. The supernatants were collected using centrifugation. All samples were filtered through a 0.22 μm membrane before analysis by a UPLC system (Waters ACQuity™ Ultra Performance LC) equipped with a reverse-phase column (ACQuity UPLC@BEH, C18, 1.7 μm 2.1×150 mm) and a fluorescence detector (ACQuity FLR, Ex/Em=362/430 nm). The column was flushed with a mixture of water (0.1% TFA) and acetonitrile (0.1% TFA) at 0.3 mL/min with the following gradient: 5% acetonitrile (0-1 min), 5-95% acetonitrile (1-5 min), 95% acetonitrile (5-8 min), 95-5% acetonitrile (8-9 min), and 5% acetonitrile (9-10 min). Peaks with retention times of 5.4 min (free CPT) and 6.9 min (TT 1) were monitored.

HT-29 cells = test system: HT-29 cells
Description: Antitumor efficacy study of SAPDs at the same dose on a HT-29 tumor model. […] When the averaged tumor size reached 75-95 mm^3, mice were randomly divided into six groups. […] The tumor volumes and body weights were monitored and recorded every two or three days. The tumor volume was estimated by measuring the length and width with calipers and using the equation “tumor volume=(length×width^2)/2”. Mice were euthanized once the tumor volume reached 1000 mm^3.

[5] = test system: human glioblastoma U87 MG cells; assay: Antitumor efficacy study for systemic delivery, subcutaneous U87 MG tumor; assay type: in vivo, athymic nude mice; settings: controls: free CPT 4.5 mg/kg i.p.; irinotecan 60 mg/kg i.p.
Experimental: A total of 2×10^6 human glioblastoma U87 MG cells were subcutaneously injected into the right shoulder of athymic nude mice (8-9 weeks old). The mice were used for the efficacy study after three to four weeks when the tumor had reached about 190-250 mm^3 in size. […]. Water insoluble free CPT was dissolved/suspended in a mixture of DMSO/ethanol/PEG-400/water (1:1:2:1). CPT (4.5 mg/kg) and irinotecan (60 mg/kg) were administered by intraperitoneal injection, while freshly prepared TT 1 solutions of various doses were administered intravenously by tail vein injection every 4 days for a total of three doses (days 1, 5, and 9). […]. Tumor volumes were measured and recorded every other day. The body weights were measured and recorded every day or every other day. The tumor volume was determined by measuring the tumor in two dimensions with calipers and using the formula “tumor volume=(length×width^2)/2”. Each animal was euthanized once the tumor volume reached the predetermined end point size of 2000 mm^3.

[6] = test system: U87 MG human brain cancer cells; assay: cells; settings: U-87 MG, 48 h
Experimental: (§1) The human brain cancer cell line U87 MG was a generous gift from Dr. Wirtz (ChemBE, JHU). DMEM (Invitrogen) containing 10% fetal bovine serum (FBS, Invitrogen) and 1% antibiotics (Invitrogen) was used for the culture of the U87 MG cells. Cancer cells were incubated at 37° C. in a humidified incubator (Oasis, Caron, Marietta, Ohio, USA) with an atmosphere of 5% CO2. […] U87 MG cells were seeded onto 96-well plates (5000 cells/well) and allowed to attach overnight. […] The stock solutions were then diluted with fresh medium to achieve final CPT concentrations of 0.1, 1, 10, 100, 500, 1000, 5000 and 10000 nM. After dilution, the nanotube-containing media were used to incubate cells immediately. Medium containing the same concentration of free CPT ranging from 0.1 to 10000 nM was also used to incubate the cells, with non-treated cells (solvent only) as the control group. In addition, irinotecan at the concentration of 0.1, 1, 5, 10, 50, 100 and 500 μM was employed as a second control. After 48 h incubation, the cell viability was evaluated using the SRB method according to the manufacturer's protocols (TOX-6, Sigma, St. Louis, Mo.).

[7] = test system: U87 MG human glioblastoma; assay: Antitumor efficacy study for local delivery (intratumoral TT 2 hydrogel); assay type: in vivo, athymic nude mice; settings: 10 mM hydrogel, 30 μL intratumoral
Experimental: The hydrogel formation of TT 2 in vivo was investigated through subcutaneous injection of a TT 2 gel. […] The tumor model used in local delivery is the same U87 MG human glioblastoma line used in the systemic delivery study described above. Mice were randomly selected (n=7) and treated with TT 2 hydrogel at a fixed dose (10 mM, 30 μL) through intratumoral injection. Tumor volumes and body weights were measured and recorded every other day. The tumor volume was determined by measuring the tumor in two dimensions with calipers and using the formula “tumor volume=(length×width^2)/2”. Each animal was euthanized once the tumor […] reached the predetermined end point size of 2000 mm^3.
The antitumor efficacy of TT 2 hydrogel was then evaluated in a subcutaneous U87 MG xenograft model via intratumoral injection of a 10 mM TT 2 SP hydrogel (30 μL). All seven mice studied experienced tumor regression with a minimum mean tumor volume of 36 mm^3 at day 25 and survived for more than 45 days (FIG. 3K).

[8] = Gel release of TT 2 nanotube hydrogel; assay type: physicochemical; settings: 10 mM in 1×-DPBS, 37° C., over 31 days
Experimental: TT 2 was dissolved in water and hydrogel formation triggered by the addition of 10×-DPBS to give a final TT 2 concentration of 10 mM in 1×-DPBS. 200 μL of the hydrogel was placed at the bottom of centrifuge tube and allowed to re-gel overnight. Three replicate experiments were prepared together and incubated at 37° C. Fresh 1×-DPBS (300 μL) was layered on top of the hydrogel and was refreshed at predetermined time points: 1, 2, 4, 7, 10, 13, 16, 19, 22, 25, 28, and 31 days. The samples were frozen with liquid nitrogen and stored at −30° C. until analysis. The amount of TT 2 in the top DPBS layer was determined by analytical RP-HPLC using the conditions described in the previous paragraph. The cumulative release of TT 2 from its hydrogels was calculated and plotted as a percentage of the total amount of hydrogel. The conjugate was seen to be released almost linearly from the hydrogel with ˜10% of the prodrugs being released over the 31-day period.

[9] = test system: U87 MG human brain cancer cells; settings: 48 h
Experimental: as §1

[10] = in vivo; cited from earlier work

| SMILES | Diameters measured by conventional TEM [1] [nm] | ζ-potential at pH 7.4 versus pH 5.0 [2] | ζ-Potential ([2]; pH 5.0, 200 μM) [mV] | ζ-Potential ([2]; pH 7.4, 200 μM) [mV] | median survival [5] [days] | pIC50 [6] | also measured |
| --- | --- | --- | --- | --- | --- | --- | --- |
| CC[C@]1(OC(=O)OCCSSC[C@@H](NC(C)=O)C(=O)N[C@@H](CCCCNC(=O)[C@@H](CSSCCOC(=O)O[C@]2(CC)C(=O)OCc3c2cc2n(c3=O)Cc3cc4ccccc4nc3-2)NC(C)=O)C(=O)N[C@@H](CCC(=O)O)C(=O)N[C@@H](CCC(=O)O)C(N)=O)C(=O)OCc2c1cc1n(c2=O)Cc2cc3ccccc3nc2-1 [TT 3] | 8.4 ± 0.9 | more negative ζ-potentials at pH 7.4 than 5.0 | – | – | – | – | – |
| CC[C@]1(OC(=O)OCCSSC[C@@H](NC(C)=O)C(=O)N[C@@H](CCCCNC(=O)[C@@H](CSSCCOC(=O)O[C@]2(CC)C(=O)OCc3c2cc2n(c3=O)Cc3cc4ccccc4nc3-2)NC(C)=O)C(=O)N[C@H](CCCCNC(=O)CN2CCN(CC(=O)O)CCN(CC(=O)O)CCN(CC(=O)O)CC2)C(N)=O)C(=O)OCc2c1cc1n(c2=O)Cc2cc3ccccc3nc2-1 [TT 5] | 8.4 ± 0.9 | more negative ζ-potentials at pH 7.4 than 5.0 | – | – | – | – | – |
| CC[C@]1(OC(=O)OCCSSC[C@@H](NC(C)=O)C(=O)N[C@@H](CCCCNC(=O)[C@@H](CSSCCOC(=O)O[C@]2(CC)C(=O)OCc3c2cc2n(c3=O)Cc3cc4ccccc4nc3-2)NC(C)=O)C(=O)N[C@@H](CCCCN)C(=O)N[C@@H](CCC(=O)O)C(N)=O)C(=O)OCc2c1cc1n(c2=O)Cc2cc3ccccc3nc2-1 [TT 4] | 8.3 ± 0.9 | – | −2.3 | −18.8 | – | – | – |
| CC[C@@]1(O)C(=O)OCc2c1cc1n(c2=O)Cc2cc3ccccc3nc2-1 [CPT, Camptothecin, reference compound] | – | – | – | – | 17 | 7.21 | outcome of intravenous administration ([3]; 9 mg/kg i.v., DMSO/ethanol/PEG-400/water formulation): immediate death; tolerable dosage ([3]; intraperitoneal injection): 4.5 mg/kg; MTD ([3]; mouse, in vivo, intraperitoneal): ~5 mg/kg; concentration at 1 h ([4]; read-out: drug concentration in plasma): 37 ng/g; concentration at 1 h ([4]; read-out: drug concentration in tumor): 92 ng/g; treatment outcome (deaths) (HT-29 cells; free CPT 9 mg/kg i.p., n=5): death of all five mice after the second dose |
| CC[C@]1(OC(=O)OCCSSC[C@@H](NC(C)=O)C(=O)N[C@@H](CCCCNC(=O)[C@@H](CSSCCOC(=O)O[C@]2(CC)C(=O)OCc3c2cc2n(c3=O)Cc3cc4ccccc4nc3-2)NC(C)=O)C(=O)N[C@@H](CCCCN)C(=O)N[C@@H](CCCCN)C(N)=O)C(=O)OCc2c1cc1n(c2=O)Cc2cc3ccccc3nc2-1 [TT 2] | 8.1 ± 0.6 | – | 31.8 | 22.1 | – | – | mice with complete tumor regression [7]: Four out of seven; survival to end point of tumor-free mice [7]: around 140 d; minimum mean tumor volume ([7]; day 25, n=7): 36 mm^3; survival of all treated mice ([7]; n=7): more than 45 days; cumulative release of TT 2 from hydrogel [8]: ~10%; pIC50 [9]: 6.91 |
| CCc1c2c(nc3ccc(OC(=O)N4CCC(N5CCCCC5)CC4)cc13)-c1cc3c(c(=O)n1C2)COC(=O)[C@]3(O)CC [irinotecan, reference compound] | – | – | – | – | 27 | 5.19 | reported MTD [10]: 100 mg/kg; median survival (HT-29 cells; SAPDs 10 mg/kg i.v. days 1, 5, 9, 13, irinotecan 100 mg/kg i.p. days 1, 8, 15): 51 days |
